# Assay results from patent publication USRE39682E1, “Farnesyl derivatives and pharmaceutical compositions containing them” (Ramot at Tel Aviv University Ltd., priority 1993, dated 2007).
# Legend:
# PPMTase = molecular target: T1, PPMTase (Homo sapiens, UniProt O60725); assay: PPMTase activity (AFC methylation) in membranes of HEC1A cells; type: biochemical; details: for PPMTase activity: with inhibitor
# T1 construct: PPMTase activity in membranes obtained from four different cell lines as determined by methylation of AFC; endogenous in cells; host or cells: HEC1A cell membranes
# Protocol: Charles River adult male rats were used for preparation of cerebellar synaptosomal membranes. Cerebella were removed after decapitation and homogenized in 0.32M sucrose containing 50 mM Tris-HCl pH 7.4, 3 mM EDTA, 1 mM EGTA, 5 unit/ml aprotinin and 5 μg/ml pepstatin (buffer A) to yield 10% (w/v) homogenates. Nuclear fractions were obtained by 10 min. 600×g centrifugation and synaptosomal fractions were obtained by 20 mins. 14,500×g centrifugation. Membranes of the various cell types used were prepared in the above buffer A by a 60 min. spin at 100,000×g.
# Pellets were resuspended in the homogenization buffer and stored at −70° C. Methylation assays were performed at 37° C. in 50 mM Tris-HCl buffer pH 7.4, using 75-125 μg protein, 25 μM [methyl-^3H]AdoMet ([…]) as a methyl donor and 150 μM AFC as a methylation substrate (prepared as a stock solution in DMSO) in a total volume of 50 μl. DMSO concentration in all assays was 4%.
# Reactions were terminated after 10 min. by adding 500 μl chloroform methanol (1:1) and a subsequent addition of 250 μl H2O, mixing them and subsequently by phase separation. A portion of 125 μl of the chloroform phase was dried down at 40° C. and 200 μl of 1M NaOH/1% SDS solution were added thereto. The [^3H]methanol thus formed was counted by the vapor phase equilibrium method as described previously (Hakiai et al., Cell Mol. Neurobiol., 11, 415-431, (1991); Lenner et al., Cell Mol. Neurbiol., 12, 333 and 3351, (1992); Ben-Baruch et al., Biochem. Biophy. Res. Commun., 195, 282-288, (1993)). Typical background counts (i.e. counts of methylation with no AFC added) were 50-100 cpm while typical methylation counts with AFC as a substrate yielded 500 to 6000 cpm. Assays were performed in triplicate and background counts subtracted. Methylation of endogenous substrates, in intact cells, and [α-^32P] GTP-blot overlay assays and gel electrophoreses were performed as detailed previously (Hakiai et al., supra (1991); Lenner et al., supra (1993)).
# The B16F10 melanoma cells were grown in RPMI 1640/10% fetal calf serum, 2 mM glutamine and antibiotics as for the HEC1A cells, at the density of 1×10^4 cells/well. All four types of cells were used for determining the PPMTase activity using AFC as the substrate as described above for synaptosomal membrane preparation. Usually 150 μg membranal proteins were used in the assay for a 10 min. incubation time.
# untransformed rat1 cells = assay: Growth of untransformed rat1 cells (cell counting); type: cell-based, rat; details: for effect on the growth of normal rat1 cells: 0.1-50 μM, 3, 7 or 10 days, FIG. 7
# Protocol: (§1) HEC1A, V-raf-3T3 and SV40-CHE cells were grown in Dulbecco's modified Eagle medium (DMEM) containing 10% fetal calf serum (FCS), 4 mM L-glutamine, 10 μg/ml streptomycin and 10 U/ml penicillin. Rat1 and -EJ cells were grown in the same medium except that it was supplemented with 12.5 U/ml nyostatin. RB-22 cells were grown in modified DMEM (1 mM sodium pyruvate, 20 mM sodium bicarbonate)/10% FCS containing 4 mM L-glutamine, […] streptomycin, 10 U/ml penicillin. PC-12 cells were grown in DMEM 15% FCS/5% horse serum and the above noted antibiotics.
# (§2) HEC1A cells were plated in 24 well plates at a density of 5×10^3 cells per well and fed with 1 ml of medium. The cells were grown at 37° C. in a humidified atmosphere of 95%/5% air/CO2. All other cell types employed were plated in 24 well plates at a density of 2×10^3 cells per well and fed with the appropriate medium.
# (§3) Cultures were treated with farnesyl derivatives or with solvent either 3 hrs following plating or one day after plating as indicated. The drugs were prepared in DMSO to yield the final desired drug (0.1-50 μM) concentration and 0.1% DMSO. Control cultures received 0.1% DMSO only. Cultures were fed on days 6, 7 and 9 of the experiment with the drugs or with solvent-containing media.
# […] For counting, cells were detached from plates with trypsin/EDTA, and collected by a low speed spin in the presence of DMEM/10% FCS. The pelleted cells were resuspended in a small volume of DMEM/10% FCS and counted under the microscope. Viability of cells was estimated by staining with (3-(4,5-dimethylthiosol-2-yl)-2,5-diphenyltetrazolium bromide (MTT) and microscopic examination of the stained and unstained cells, or spectrophotometric estimation (OD490, 590) of the total stain in each well. Non viable cells were estimated by the trypan blue exclusion method.
# Cells were plated at a density 2×10^3/well and received either solvent or drugs one day later. Following 3, 7, or 10 days of the drugs-treatment as described above, cells were collected and the number of cells in each well was estimated by direct counting. […]
# [1] = tested on: human endometrial carcinoma HEC1A cells; assay: Growth of HEC1A cells (cell counting); type: cell-based; details: 3 days of treatment
# Excerpt: The cell lines employed were rat1, -EJ, which are rat1 cells stably expressing Val- 12 activated human Ha-ras gene (Land H. et al., Nature, 304, 596-602, (1983)); V-raf-3T3, which are 3T3 cells stably expressing the V-raf gene (Xu, N., et al., Proc. Natl. Acad. Sci., 90, 6741-6745); RB-22, which are 3T3 cells stably expressing the rat Erb-B2 gene (Peles, et al., EMBO J., 10, 2077-2086 (1991)) CO6O cells (SV40-CHO), which are CHE cells stably expressing the SV-40 T-antigen gene (Lavi, Proc. Natl. Acad. Sci., 78, 6144-6148 (1981)); human endometrial carcinoma cell line HEC1A, which are cells that express activated K-ras (Enomoto T., Cancer Res., 50, 6139-6145; mouse B16F10 melanoma cells, rat pheochromocytoma PC12 cells, […] cells CHE and COS cells.
# as §1, §2, §3
# Cells were counted following 3, 7 and 10 days of beginning of treatments with drugs. For counting, cells were detached from plates with trypsin/EDTA, and collected by a low speed spin in the presence of DMEM/10% FCS. The pelleted cells were resuspended in a small volume of DMEM/10% FCS and counted under the microscope. Viability of cells was estimated by staining with (3-(4,5-dimethylthiosol-2-yl)-2,5-diphenyltetrazolium bromide (MTT) and microscopic examination of the stained and unstained cells, or spectrophotometric estimation (OD490, 590) of the total stain in each well. Non viable cells were estimated by the trypan blue exclusion method. […]
# [2] = Homo sapiens, HEC-1-A, 72 h, at 10 μM FTS or 50 μM FTA, read-out: maximal effects, inhibition of growth
# T1 sequence (O60725 whole entry): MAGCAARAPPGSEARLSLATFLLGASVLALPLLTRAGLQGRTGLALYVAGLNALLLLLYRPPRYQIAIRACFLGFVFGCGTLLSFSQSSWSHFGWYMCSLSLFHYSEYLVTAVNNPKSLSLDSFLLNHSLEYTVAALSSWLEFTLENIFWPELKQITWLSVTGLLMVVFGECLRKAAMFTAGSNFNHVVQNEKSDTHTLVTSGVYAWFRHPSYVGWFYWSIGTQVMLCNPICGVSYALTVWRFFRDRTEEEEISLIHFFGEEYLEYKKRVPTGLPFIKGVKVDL
SMILES,% Inhibition (PPMTase),PPMTase activity (PPMTase),effect on the growth of normal rat1 cells (untransformed rat1 cells),concentration of maximal effects on growth [1],"Emax [1, 2]","Number of cells (% of control) (untransformed rat1 cells; Ras1, 25 μM, day 5)","Emax at 10 µM [1, 2]"
"CC(C)=CCC/C(C)=C/CC/C(C)=C/CSCC(=O)O [FTA, S-trans, trans-farnesylthioacetic acid, reference compound]",43%,1.7 pmol/min/mg protein,neither FTA nor FTS has any significant effect,50 µM,~50%,,
"CC(C)=CCC/C(C)=C/CC/C(C)=C/CSc1ccccc1C(=O)O [FTS, (3,7,11-trimethyl-dodeca-2,6,10-trienyl)-2-thiobenzoic acid]",40%,1.5 pmol/min/mg protein,neither FTA nor FTS has any significant effect,10 µM,,97 ± 10 % of control,~50%
